Measurements as given in PubChem BioAssay AID720660 (The Scripps Research Institute Molecular Screening Center, 2013).
Activity calls are given as the source filed them.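 Rule for the calls: active = EC50 of 10 µM or lower, the dose giving half of maximal activation; inactive = the rest.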

Tested on: MG132 cells, BRM-dependent luciferase reporter, 24 h
Experiment: dose-dependent BRM function restoration – cell-based, luminescence, dose response, late-stage follow-up (AID 720660)

EC50, inactive:
Oc1ccccc1OCc1nc2ccccc2s1 > 91.2 µM, Cc1cc(C)c2nc(NC(=O)C(C)C)sc2c1 > 91.2 µM, O=C(NCC1(c2nc(-c3ccccc3)cs2)CCOCC1)c1cccc(-c2noc(C(F)(F)F)n2)c1 > 91.2 µM, COc1ccc(-c2nc(C#N)c(NC3CC3)o2)cc1 > 91.2 µM, Clc1ccc(Cc2nc(-c3ccccc3)cs2)cc1 > 91.2 µM, Cc1nc(NC(=O)c2cccc(Br)c2)sc1C > 91.2 µM, Cc1ccc(Nc2nc(-c3ccccc3)c(C)s2)cc1 > 91.2 µM
